Earlier results as cited in patent US20130090323A1, “HETEROCYCLIC COMPOUNDS AND THEIR USES” (Amgen Inc., priority 2010, published 2013).

What was measured:
[1] = system: model of systemic lupus erythematosis; details: in vivo
[2] = system: mouse model of rheumatoid arthritis; details: in vivo
murine model of asthma = details: mouse, in vivo
[3] = system: murine model of allergic disease; details: absence of functional delta (compound and p110δ D910A mice)
p110δ = biological target: T1, p110δ (Homo sapiens, UniProt O00329)
T1 sequence (O00329 1-1044): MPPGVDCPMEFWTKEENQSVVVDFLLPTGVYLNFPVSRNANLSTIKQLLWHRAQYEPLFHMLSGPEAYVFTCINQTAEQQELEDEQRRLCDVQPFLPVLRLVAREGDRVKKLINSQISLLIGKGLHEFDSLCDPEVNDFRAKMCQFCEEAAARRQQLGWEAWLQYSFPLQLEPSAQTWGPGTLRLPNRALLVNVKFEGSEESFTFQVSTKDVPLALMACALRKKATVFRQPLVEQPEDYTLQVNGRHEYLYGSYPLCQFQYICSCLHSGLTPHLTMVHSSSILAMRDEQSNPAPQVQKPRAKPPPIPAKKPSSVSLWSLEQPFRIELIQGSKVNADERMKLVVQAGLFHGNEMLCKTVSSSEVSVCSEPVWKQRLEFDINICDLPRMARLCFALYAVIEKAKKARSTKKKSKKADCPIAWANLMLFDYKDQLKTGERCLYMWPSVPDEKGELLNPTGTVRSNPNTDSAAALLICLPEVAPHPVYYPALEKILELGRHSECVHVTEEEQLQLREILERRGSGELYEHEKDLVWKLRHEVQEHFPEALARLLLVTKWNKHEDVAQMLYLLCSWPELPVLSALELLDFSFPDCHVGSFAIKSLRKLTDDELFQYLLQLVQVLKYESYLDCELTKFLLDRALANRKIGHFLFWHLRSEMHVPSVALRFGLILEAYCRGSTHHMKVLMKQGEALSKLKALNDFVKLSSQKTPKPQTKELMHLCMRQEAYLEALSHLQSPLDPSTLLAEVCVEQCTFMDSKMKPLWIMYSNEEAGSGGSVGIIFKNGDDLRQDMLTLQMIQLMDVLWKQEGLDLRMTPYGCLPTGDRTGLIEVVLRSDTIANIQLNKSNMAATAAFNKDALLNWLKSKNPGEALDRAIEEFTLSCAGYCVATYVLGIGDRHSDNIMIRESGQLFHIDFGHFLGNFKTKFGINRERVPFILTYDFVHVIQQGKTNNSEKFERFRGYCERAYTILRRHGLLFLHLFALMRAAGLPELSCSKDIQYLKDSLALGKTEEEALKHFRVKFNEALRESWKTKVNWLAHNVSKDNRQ

Structure (SMILES) | onset of disease in a model of systemic lupus erythematosis [1] | efficacy in a mouse model of rheumatoid arthritis [2] | inflammation and disease in ovalbumin-induced airway inflammation (murine model of asthma) | passive cutaneous anaphylaxis (PCA) [3] | inhibition of p110δ (p110δ) | activity against any protein kinases tested (protein kinases)
O=C1NC(=O)/C(=C\c2ccc3nccnc3c2)S1 [AS 605240] | delay onset of disease | efficacious |  |  |  | 
Cc1ccccc1-n1c(Cn2cnc3c(N)ncnc32)nc2cccc(C)c2c1=O [IC87114] |  |  | significantly ameliorate inflammation and disease | significantly reduced | high nanomolar range (triple digit) | no activity
